Consider 91 molecules from the pKa sets of Baltruschat and Czodrowski (2020).

Structures are written as SMILES.

Broadly, the pKa is the negative logarithm of the acid dissociation constant. A low value points to a stronger acid or weaker base. Turning to `CC[C@H](C(=O)NO)[C@H](C(=O)N1CCCC[C@H]1C(=O)NC)c1ccc(Cl)cc1`, the pKa amounted to 9.2. To `Fc1ccc2c(/C=C/c3nn[n-]n3)c[nH]c2c1` belongs 4.94. To `O=C1CN=C(c2ccccc2)c2cc3ccccc3cc2N1` belongs 3.8. `Cc1[nH]c2ccccc2c1C1CC[NH+](Cc2ccc(CCC(=O)N=O)cc2)C1` (stereo unspecified) displayed a pKa of 8.59. To `CCCCC[C@H](O)CC[C@@H]1[C@H]2Cc3cccc(OCC(=O)[O-])c3C[C@H]2C[C@H]1O` belongs 3.37; to `NS(=O)(=O)Oc1ccc2nc(C=C3C4CC5CC(C4)CC3C5)oc2c1`, 8.26; to `COc1ccc(CNC(=O)[C@@H](NC(=O)[C@H](Cc2ccc(OC)c(OC)c2)NC(=O)Cc2cccc(Oc3ccccc3)c2)C(C)C)c(O)c1`, 10.9. `O=C([O-])COc1ccc(Cl)cc1C1CCCCC1`: the pKa is 3.51. As to `Cc1nc2ccccn2c1C(=O)NCc1ccc(-c2ccccc2)cc1`, the pKa turned out to be 4.7. The molecule `Cc1c(CC(=O)[O-])c2cccnc2n1S(=O)(=O)c1ccc(Cl)cc1` had a pKa of 3.86. The same measure for `Cc1onc(-c2ccccc2)c1-c1ccc(S(N)(=O)=O)cc1`: 10; for `CCCCCCCCc1ccc(CCC([NH3+])(CO)CO)cc1`: 8.52; for `Cc1ncc(-c2ccc(C(F)(F)F)cc2)c(NC2C3CC4CC(C3)CC2C4)n1` (stereo unspecified): 6. Take `Cc1ccc(Nc2ncc(C(=O)N3CCCCC3)cc2Cl)cn1`: the pKa turned out to be 5.2. To `COc1cc(C(C)O)ccc1OCCC[NH+]1CCC(c2noc3cc(F)ccc23)CC1` (stereo unspecified) belongs 8.25; to `O=C([O-])c1ccc(-c2ccccc2)cc1`, 3.9; to `Clc1ccc(-c2ccc(-c3ccnc(N4CC[NH2+]CC4)n3)s2)cc1`, 8.9.

`Cc1ccc2c(=O)c3cccc(CC(=O)[O-])c3oc2c1C` returned a pKa of 3.8.

Turning to `O=C([O-])c1ccc(-c2nc(-c3cccc(C(F)(F)F)c3)cs2)cc1`, the pKa amounted to 4.1.

Consider `C/C(=C\c1cc(C)ccn1)[C@@H]1C[C@@H]2O[C@]2(C)CCC[C@H](C)[C@H](O)[C@@H](C)C(=O)C(C)(C)[C@@H](O)CC(=O)O1`, for which the pKa turned out to be 5.5. The same measure for `O=NC(=O)CCc1ccc(C[NH2+]CC23CC4CC(CC(C4)C2)C3)cc1`: 8.85; for `O=c1[nH]c2c(Cc3nn[n-]n3)c3ccccc3n2c2ccccc12`: 4.42; for `O=c1[nH]c(-c2ccc(C(F)(F)F)cc2)nc2c1CCOC2`: 7.87. Regarding `CC(C)(C)Cn1c(Cc2ccc(NS(N)(=O)=O)cc2)cc2cnc(C#N)nc21`, the pKa worked out at 9.3.

As to `CC(C)(C)OC(=O)N1CCC(C(=O)NS(=O)(=O)c2c(Cl)sc(Cl)c2Br)CC1`, the pKa is 2.1. As for `Cc1cc(N2CCCC2)cc(/C=C/c2cccc(C(F)(F)F)c2)[nH+]1`, the pKa stood at 9.43. The molecule `OCCn1cc(-c2cnc3nnn(Cc4ccc5ncccc5c4)c3n2)cn1` returned a pKa of 4.6. Regarding `Cc1nc(N2CCN(Cc3ccccc3)C2=O)sc1C(=O)NCc1ccccn1`, the pKa worked out at 4.28. To `Cc1nc[n+]([O-])c(C)c1C(=O)N1CCC(C)([NH+]2CCC(N(c3ccccc3)c3ccccc3)CC2)CC1` belongs 8.5; to `O=C([O-])c1ccc(NC(=O)c2cn(-c3ccccc3)nc2-c2ccc(Cl)cc2)cc1`, 4.2; to `Cc1ccc(-c2cc(C(F)(F)F)nn2-c2ccc(S(N)(=O)=O)cc2)cc1`, 9.46. To `C[NH+](CCC(=O)N1CCN(c2ccc(F)c(F)c2)CC1)CCC1c2ccccc2Oc2ccccc21` belongs 7.9; to `COc1ccnc(N2CCC3(CCCN(Cc4c[nH]c5ccccc45)C3=O)CC2)n1`, 5.28. On to `Cc1nc2cccc(C(F)(F)F)c2c(=O)n1-c1ccc(OC2CC[NH+](C3CCC3)CC2)cc1`, for which the pKa amounted to 9. `CN(CCO)c1cc2c(=O)n(NS(C)(=O)=O)c(=O)[nH]c2cc1C(F)(F)F` registered a pKa of 8.3. The same measure for `Cc1nc(N2CCN(CC3CC3)C2=O)sc1C(=O)NCc1cccnc1`: 5; for `COc1ccc(-c2ccc(C(=O)Nc3ccc4c(c3)CCC(C[NH+](C)C)C4)cc2)cc1` (stereo unspecified): 9.1. With `C/C(=C\c1ccccn1)[C@@H]1C[C@@H]2O[C@]2(C)CCC[C@H](C)[C@H](O)[C@@H](C)C(=O)C(C)(C)[C@@H](O)CC(=O)O1`, the pKa stood at 5. `CN(n1c(=O)[nH]c2cc(Cl)ccc2c1=O)S(C)(=O)=O` displayed a pKa of 8.4. To `CC(=O)N1CCN(c2ccc(OCc3cc4cnc(C#N)nc4n3CCC3CCC(F)(F)CC3)cc2)CC1` belongs 3.6. `COc1cccc(OC)c1-c1ccc(C[C@H](NC(=O)c2c(Cl)cccc2Cl)C(=O)[O-])cc1` displayed a pKa of 3.41. To `CC(C)(C)Cn1c(CN2C(=O)CC3(CC[NH2+]CC3)C2=O)cc2cnc(C#N)nc21` belongs 9.2; to `NC1=[NH+]c2ccccc2CC1`, 9.55; to `CC(C)COC(=O)Nc1ccc(-c2cnc3c(-c4ccc(N5CC[NH+](C)CC5)cc4)cnn3c2N)cc1`, 8.2. In turn, `CC/C(=C(\c1ccccc1)c1ccc(/C=C/C(=O)[O-])cc1)c1ccccc1` showed a pKa of 4.26. Take `CC1CCCN(C(=O)c2ccc(Nc3ccc(Cl)cc3)nc2)C1` (stereo unspecified): the pKa was 3.4. Consider `CNc1nc2ccccc2n(C)c1=O`, for which the pKa came out at 4.25. With `CCOCC(=O)N1CCC(CNc2nc3c(s2)CCOc2ccc(F)cc2-3)CC1`, the pKa is 3.7. In turn, `COc1ccc(SCCc2ccncc2)cc1` gave a pKa of 5.6.

Turning to `CC(=O)Nc1cc(Cl)ccc1/C=C/C(=O)N1CC[NH+](Cc2ccc(F)cc2)C[C@H]1C`, the pKa is 5.9. Molecule `CC(C)(C)[NH2+]C[C@H](O)c1cc(Cl)c(N)c(Cl)c1` yielded a pKa of 9.7.

Consider `COc1ccc(SC)c2c1C[C@@H]1[C@@H](C2)OCC[NH+]1C`, for which the pKa stood at 6.25. The same measure for `Cc1ccc(C)n1-c1ccc(Cl)cc1C(=O)[O-]`: 3.35. As for `Cc1cccc(C)c1C(=O)N1CCC(C)([NH+]2CCC(N(c3ccccc3)c3ccccc3)CC2)CC1`, the pKa is 8.35. To `Clc1ccc(OCc2nn[n-]n2)c(C2CCCCC2)c1` belongs 3.87; to `Cc1ncccc1Oc1ncnc(OC2CCN(C(=O)OC(C)C)CC2)c1C`, 4.18; to `N#Cc1ncc2cc(COc3ccc(C(=O)[O-])cc3)n(CCC3CCCCC3)c2n1`, 4.2. In turn, `O=S(=O)(c1ccccc1)N(CC(F)(F)F)c1ccc(C(O)(C(F)(F)F)C(F)(F)F)cc1` displayed a pKa of 8.2. The same measure for `CN1C(=O)N(C[C@H](C(=O)NO)[C@@H](CC2CCCC2)C(=O)N2CCCCC2)C(=O)C1(C)C`: 9.01; for `COc1ccc(-c2c(C)nc3c(-c4ccccn4)cnn3c2N)cc1`: 6.07; for `CC(C)N(CCCCOCC(=O)NS(C)(=O)=O)c1cnc(-c2ccccc2)c(-c2ccccc2)n1`: 3.37. `CNC(=O)c1c(NCC2CCC3(CCC3)CC2)nc(C#N)nc1OC1CC(C)(C)[NH2+]C(C)(C)C1` came in with a pKa of 9.2. The molecule `Cn1c(-c2ccc(C[NH+](C)C)cc2)cc2onc(-c3ccccc3)c2c1=O` returned a pKa of 8.38.

Molecule `CCOc1ccc2nc(S(N)(=O)=O)sc2c1` registered a pKa of 8.36. In turn, `COc1ccc(C#CC(C)(C)[NH3+])cc1C(=O)c1ccc(Nc2ccc(F)cc2F)cc1` displayed a pKa of 8.1.

As for `CCCCC(=O)N1CCC(CNc2nc3c(s2)CCOc2ccc(F)cc2-3)CC1`, the pKa was 3.69.

The molecule `COc1cc(C(C)=O)ccc1OCCC[NH+]1CCC(c2noc3cc(F)ccc23)CC1` showed a pKa of 8.2. As to `CS(=O)(=O)Nn1c(=O)[nH]c2cc(C(F)(F)F)c(N3CCOCC3)cc2c1=O`, the pKa stood at 8.35. As for `CCOC(=O)c1c(C)cc2nc(COC(=O)NCCO)n(-c3ccccc3S(=O)(=O)NC)c(=O)c2c1C`, the pKa was found to be 10.6. `CC(=O)N1CCN(c2ccc(OCc3cc4cnc(C#N)nc4n3CCC3CCCCC3)cc2)CC1` gave a pKa of 3.3. The molecule `O=C1c2ccccc2-[n+]2ccc3c([nH]c4ccccc43)c21` returned a pKa of 8.7. With `CC(C)[NH+](CCc1c[nH]c2ccccc12)Cc1ccc(CCC(=O)N=O)cc1`, the pKa is 8.66. The same measure for `Cc1ccc(-c2ncc(Cl)cc2-c2ccc(S(C)(=O)=O)cc2)cn1`: 4.63; for `O=C1NC(=O)C(c2c[nH]c3ccccc23)=C1c1nc(N2CCOCC2)nc2ccccc12`: 9.3; for `Fc1ccc([C@H]2CC[NH2+]C[C@@H]2COc2ccc3c(c2)OCO3)cc1`: 9.5.

`Cc1cc(C)nc(N2CCC3(CCCN(Cc4c[nH]c5ccccc45)C3=O)CC2)n1` had a pKa of 4.94. To `CS(=O)(=O)Nn1c(=O)[nH]c2cc(C(F)(F)F)ccc2c1=O` belongs 8.35; to `CNC(=O)c1c(NCC2CCC3(CCC3)CC2)nc(C#N)nc1OCCC1CC[NH+](C)CC1`, 10.2. `C[C@@H](NC(=O)c1cc(C(=O)N[C@@H](Cc2ccccc2)[C@H](O)C[NH2+]C2CC2)cc(N(C)S(C)(=O)=O)c1)c1ccc(F)cc1` displayed a pKa of 7.7. To `O=c1cc(CSc2cccc(F)c2F)nc2cc(-c3ccco3)[nH]n12` belongs 7.5; to `CNC(=O)c1c(NCC2CCC3(CCC3)CC2)nc(C#N)nc1OCC1CC[NH+](C)CC1`, 10.7. The same measure for `N#Cc1ncc2cc(COc3cccc(CCC(=O)[O-])c3)n(CCC3CCCCC3)c2n1`: 4.5.

For the molecule `Cc1ccc(Nc2c(F)cccc2Cl)c(CC(=O)[O-])c1`, the pKa was found to be 4.2. `CS(=O)(=O)Nn1c(=O)[nH]c2cc(C(F)(F)F)c(N3CCCOCC3)cc2c1=O` gave a pKa of 8.4. In the case of `C[NH+](CCC(=O)N1CCN(c2ccc(F)c(F)c2)CC1)CCC1c2ccccc2-c2ccccc21`, the pKa worked out at 7.8. `CC(C)n1c(/C=C/[C@H](O)C[C@H](O)CC(=O)[O-])c(-c2ccc(F)cc2)c2ccccc21` yielded a pKa of 4.5.

Consider `CC(C)N(CCCCOCC(=O)[O-])c1cnc(-c2ccccc2)c(-c2ccccc2)n1`, for which the pKa stood at 3.38.

In turn, `O=C(Nc1cccc2cnccc12)c1ccc(-c2ccccc2)cc1` displayed a pKa of 4.1. On to `CCN(Cc1ccccc1)c1ccccc1`, for which the pKa was found to be 5.8. Regarding `COc1ccc(OC)c(CNc2ccc3nc(N)nc(N)c3c2Cl)c1`, the pKa is 7.1. To `COc1cc(CN(CC(=O)NCc2ccccc2Cl)S(=O)(=O)c2ccc(CN3CC[NH+](C)CC3)cc2)ccc1OCC(C)C` belongs 7.17.
